Assay results reported in ChEMBL document CHEMBL4613204, “Lysine demethylase 5B (KDM5B): A potential anti-cancer drug target” (Eur J Med Chem, 2019).
Blank lines part the entries; values can stand above or below the molecule they belong to.

How the values were obtained:
[1] = molecular target: T1, Lysine-specific demethylase 5B (Homo sapiens, UniProt Q9UGL1); experiment: Inhibition of KDM5B (unknown origin)
MDA-MB-231 = experiment: Antiproliferative activity against human MDA-MB-231 cells assessed as growth inhibition; format: functional
[2] = Selectivity ratio of GI50 for human […] cells; format: functional
[3] = molecular target: T1, Lysine-specific demethylase 5B; experiment: Inhibition of KDM5B (1 to 755 residues) (unknown origin)
MCF7 = experiment: Antiproliferative activity against human MCF7 cells assessed as growth inhibition; format: functional
[4] = molecular target: Lysine-specific demethylase 5C (Homo sapiens, UniProt P41229); experiment: Inhibition of KDM5C (1 to 789 residues) (unknown origin)
Sequence of Lysine-specific demethylase 5C (P41229 whole entry, the tested form may be a part): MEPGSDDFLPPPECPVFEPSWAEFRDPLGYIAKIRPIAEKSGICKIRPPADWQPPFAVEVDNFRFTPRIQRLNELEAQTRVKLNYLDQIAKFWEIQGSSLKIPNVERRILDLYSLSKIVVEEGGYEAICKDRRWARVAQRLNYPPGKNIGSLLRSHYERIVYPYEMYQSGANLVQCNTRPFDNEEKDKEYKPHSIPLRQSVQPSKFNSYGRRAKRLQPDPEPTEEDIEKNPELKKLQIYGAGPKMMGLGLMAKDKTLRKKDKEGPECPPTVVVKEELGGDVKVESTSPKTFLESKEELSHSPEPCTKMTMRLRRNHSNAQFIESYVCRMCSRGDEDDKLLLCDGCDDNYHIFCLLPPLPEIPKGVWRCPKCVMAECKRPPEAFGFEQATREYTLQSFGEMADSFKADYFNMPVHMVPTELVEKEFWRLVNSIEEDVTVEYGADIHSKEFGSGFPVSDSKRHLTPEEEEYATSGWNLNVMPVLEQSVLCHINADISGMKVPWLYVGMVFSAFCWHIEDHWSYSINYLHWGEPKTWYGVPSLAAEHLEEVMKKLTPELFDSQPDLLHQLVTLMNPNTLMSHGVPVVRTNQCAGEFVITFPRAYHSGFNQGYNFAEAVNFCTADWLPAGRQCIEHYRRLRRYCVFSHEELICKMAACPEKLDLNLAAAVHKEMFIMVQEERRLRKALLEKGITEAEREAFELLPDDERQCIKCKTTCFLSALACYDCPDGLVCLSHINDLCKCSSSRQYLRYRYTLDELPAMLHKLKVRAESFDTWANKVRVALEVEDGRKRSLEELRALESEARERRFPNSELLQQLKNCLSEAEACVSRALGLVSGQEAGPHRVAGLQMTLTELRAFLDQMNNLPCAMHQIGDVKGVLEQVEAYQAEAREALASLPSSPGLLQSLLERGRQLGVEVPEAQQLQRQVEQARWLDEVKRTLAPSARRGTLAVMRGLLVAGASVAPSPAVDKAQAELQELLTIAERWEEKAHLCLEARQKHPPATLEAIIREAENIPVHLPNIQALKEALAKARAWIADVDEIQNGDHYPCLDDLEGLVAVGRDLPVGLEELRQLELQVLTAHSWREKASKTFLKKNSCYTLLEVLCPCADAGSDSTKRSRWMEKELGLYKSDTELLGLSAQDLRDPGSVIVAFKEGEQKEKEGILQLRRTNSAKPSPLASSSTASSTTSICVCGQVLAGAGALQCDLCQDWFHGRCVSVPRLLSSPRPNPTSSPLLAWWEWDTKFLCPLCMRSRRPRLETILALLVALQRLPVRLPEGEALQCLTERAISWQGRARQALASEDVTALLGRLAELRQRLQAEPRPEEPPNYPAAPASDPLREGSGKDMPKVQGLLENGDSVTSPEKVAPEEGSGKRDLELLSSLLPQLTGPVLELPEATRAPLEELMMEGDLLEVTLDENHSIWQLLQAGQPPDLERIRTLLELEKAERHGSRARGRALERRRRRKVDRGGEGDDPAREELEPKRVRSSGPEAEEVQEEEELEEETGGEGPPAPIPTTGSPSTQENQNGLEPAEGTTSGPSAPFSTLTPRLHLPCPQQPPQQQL

T1 sequence (Q9UGL1 whole entry): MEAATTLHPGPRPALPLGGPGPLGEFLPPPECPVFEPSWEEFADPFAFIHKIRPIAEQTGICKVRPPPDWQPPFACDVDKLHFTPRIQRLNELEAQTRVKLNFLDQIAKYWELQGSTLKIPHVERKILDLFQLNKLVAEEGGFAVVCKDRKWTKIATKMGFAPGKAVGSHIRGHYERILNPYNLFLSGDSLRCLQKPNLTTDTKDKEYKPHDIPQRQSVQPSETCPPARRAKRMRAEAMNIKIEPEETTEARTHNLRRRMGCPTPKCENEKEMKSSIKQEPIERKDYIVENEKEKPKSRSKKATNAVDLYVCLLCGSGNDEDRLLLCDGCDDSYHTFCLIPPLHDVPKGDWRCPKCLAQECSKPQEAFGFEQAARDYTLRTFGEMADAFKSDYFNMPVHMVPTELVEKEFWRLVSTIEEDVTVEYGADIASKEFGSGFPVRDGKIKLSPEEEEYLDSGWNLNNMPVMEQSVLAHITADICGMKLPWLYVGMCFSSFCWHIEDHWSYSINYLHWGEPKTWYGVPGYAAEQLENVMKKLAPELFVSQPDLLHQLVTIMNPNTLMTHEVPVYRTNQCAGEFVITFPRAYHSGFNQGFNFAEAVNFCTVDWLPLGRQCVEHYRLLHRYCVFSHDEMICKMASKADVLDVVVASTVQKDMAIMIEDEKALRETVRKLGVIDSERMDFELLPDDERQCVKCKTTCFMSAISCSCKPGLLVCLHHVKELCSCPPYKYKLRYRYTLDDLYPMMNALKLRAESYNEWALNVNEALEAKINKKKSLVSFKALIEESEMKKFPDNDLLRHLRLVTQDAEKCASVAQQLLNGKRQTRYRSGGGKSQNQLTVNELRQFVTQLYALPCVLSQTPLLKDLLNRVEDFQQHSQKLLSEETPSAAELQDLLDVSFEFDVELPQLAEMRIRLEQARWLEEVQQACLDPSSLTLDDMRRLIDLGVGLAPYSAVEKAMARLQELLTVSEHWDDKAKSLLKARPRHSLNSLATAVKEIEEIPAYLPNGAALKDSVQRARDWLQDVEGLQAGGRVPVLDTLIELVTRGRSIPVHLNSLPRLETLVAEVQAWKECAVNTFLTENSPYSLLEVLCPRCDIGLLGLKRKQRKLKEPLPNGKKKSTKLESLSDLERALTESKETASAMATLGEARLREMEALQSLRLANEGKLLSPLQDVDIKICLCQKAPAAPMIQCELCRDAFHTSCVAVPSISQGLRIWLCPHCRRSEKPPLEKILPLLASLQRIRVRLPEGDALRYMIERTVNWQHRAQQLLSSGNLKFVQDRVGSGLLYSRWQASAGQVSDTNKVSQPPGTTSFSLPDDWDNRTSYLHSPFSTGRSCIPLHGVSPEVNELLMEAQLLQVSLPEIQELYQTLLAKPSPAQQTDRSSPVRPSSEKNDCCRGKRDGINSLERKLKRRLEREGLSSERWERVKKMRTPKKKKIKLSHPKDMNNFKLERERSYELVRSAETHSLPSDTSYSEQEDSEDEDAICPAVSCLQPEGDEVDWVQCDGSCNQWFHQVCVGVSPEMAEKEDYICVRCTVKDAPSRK

IC50 [1]: 800000 nM
Structure (SMILES): O=C(O)CCC(=O)C(=O)O [ALPHA-KETOGLUTARIC ACID]

IC50 [1]: 20 nM
Structure (SMILES): CCOC(=O)c1c(O)c2ccncc2[nH]c1=O

IC50 [1]: 10 nM
Structure (SMILES): CC(C)c1c(-c2ccccc2)[nH]c2c(C#N)cnn2c1=O

More lines, now with the values behind:

Structure (SMILES): Clc1ccc(N/N=C(\c2ccccc2)c2ccccn2)nc1
GI50 (MDA-MB-231): 300 nM
Selectivity ratio [2]: 14
IC50 [3]: 5000 nM
GI50 (MCF7): 22 nM
IC50 [4]: 42000 nM

Structure (SMILES): Cc1ccc(-n2sc3ccccc3c2=O)cc1
IC50 [1]: 3000 nM
